Earlier results as cited in US11427609B2, “Glycosidic derivatives of treprostinil” (AOP ORPHAN IP AG, priority 2017, dated 2022).

bioavailability (Remodulin, subcutaneous or intravenous infusion): ~100% | biological half-life (human organism): 4.4-4.6 hours | excretion in feces (in vivo): 13% | urinary excretion as identified metabolites (in vivo): 64% | urinary excretion as unmetabolized treprostinil (in vivo): 4% | urinary excretion (total): 79%
Structure (SMILES): CCCCC[C@H](O)CC[C@@H]1[C@H]2Cc3cccc(OCC(=O)O)c3C[C@H]2C[C@H]1O [Treprostinil]
